What all share (format): cell-based, mouse
Test [1] deals with hWDR5Dox;mWdr5KO (mWdr5 KO) organoids. Put plainly: Rx-GFP (+) retinal lineage cell differentiation scored by flow cytometry (day 5). The settings on record: Dox from T0h. On the procedure: (§1) FIGS. 2A-2H. WDR5 regulates retinal progenitor cell fate transition in a dose- and time-dependent manner. (FIG. 2A) Tight control of exogenous HA-hWDR5 during early time window of ESC differentiation. hWDR5^Dox;mWdr5^KO (i.e., mWdr5 KO) ESCs were maintained in Dox (+) ESC media and Dox was removed upon ESC differentiation (day 0 or EB day 0 (EB0)). At different time points (0 h, 24 h, 36 h, 48 h, 60 h), cells were collected and subjected to probe HA-hWDR5 expression (a-HA). Tubulin: loading control. (FIG. 2B) Dose-dependent induction of exogenous hWDR5 and H3K4me during ESC differentiation. mWdr5 KO ESCs were maintained in Dox (+) ESC media and Dox was removed upon ESC differentiation (day 0). At 12 h post differentiation, different doses of Dox were added to mWdr5 KO EBs. At embryoid body (EB) day 4 (EB4), EBs were collected and extracted histones were subjected to western blotting. Total H3 was used as loading control. […] Cell proliferation was determined at EB day 4 (FIG. 2C) and Rx-GFP positive retinal progenitor cells were scored by flow cytometry at day 5 (FIG. 2D). […] Cell proliferation was recorded at EB day 4 (FIG. 2E) and Rx-GFP positive retinal progenitor cells at EB day 5 were scored by flow cytometry (FIG. 2F). […] (FIG. 2H) Wdr5 regulates RPC differentiation in a time-dependent manner as determined by Rx/Rax mRNA RT-qPCR. […]

Test [2] shares this test system. As to the kind of experiment: Cell proliferation of differentiating mWdr5 KO organoids in retinal culture conditions (EB day 4). Conditions: Dox added at T0h, organoid day 4. As to the method: as §1
The subject of test [3] is hWDR5Dox;mWdr5KO organoids. Put plainly: RT-qPCR of cardiomyocyte markers cTnT and aMHC after late (T48h) induction of hWDR5. The settings on record: Dox added at T48h. As to the method:
FIGS. 4A-4K. Late induction of hWDR5 skews ESC differentiation from retinal neuroectoderm to cardiac mesoderm. (FIGS. 4A, 4B, 4C and 4D) RT-qPCR analysis of pluripotent marker (Oct4, FIG. 4A), neuroepithelial marker (N-Cadherin, FIG. 4B), retinal ectoderm marker (Rax/Rx, FIG. 4C) and cardiomyocyte mesoderm marker (cTnT, FIG. 4D) during time-course differentiation of WT, early induction (T12h), late induction (T36h or T48h) of exogenous hWDR5 in hWDR5^Dox;mWdr5^KO (i.e., mWdr5 KO) EBs. […] (FIG. 4H) Critical time points for exogenous hWDR5 linked to cardiomyocyte differentiation were determined by cTnT RT-qPCR. […] Induction of early mesoderm marker (T/Brachyury) and cTnT was determined by RT-qPCR.
Trizol reagent (ThermoFisher Scientific) and RNeasy mini kit (Qiagen) were utilized for RNA isolation from ESCs or EBs. […] Data were automatically analyzed using Bio-Rad CFX manager software using Δ/ΔCt method.
In various aspects of the disclosure, quantitative reverse transcription PCR (RT-qPCR) is used to analyze results obtained in the examples. […] Data is automatically analyzed using Bio-Rad CFX manager software using Δ/ΔCt method.
Third, immunohistochemistry (IHC) was used to assay for cardiomyocyte-specific proteins in T48h conditions. […] Neither cTnT nor Myh1e were detected in WT and T12h conditions. […]
A general note: Real-time PCR tracks product formation cycle by cycle.

The structures appear in SMILES notation.

Turning to `C[C@H]1c2cccc(O)c2C(=O)C2=C(O)[C@]3(O)C(=O)C(C(N)=O)=C(O)[C@@H](N(C)C)[C@@H]3[C@@H](O)[C@@H]21` [Dox, doxycycline], in test [1], the “Dox dose at which proportion of Rx-GFP (+) RLCs reached a plateau” value is 500 ng/mL and the “Dox dose at which proportion of Rx-GFP (+) RLCs was comparable to WT controls” value worked out at 250 ng/mL. For the same compound, the “Dox concentration at which rescue of the proliferation defect reached a plateau” value in test [2] came out at 250 ng/mL. The “Dox concentrations that induced cTnT and aMHC expression” value in test [3] is given as “up to 125 ng/ml”.
